Laboratory results taken from US9751854B2 (Millennium Pharmaceuticals, Inc., priority 2014, dated 2017).

These compounds were tested against human VPS34 (Homo sapiens (Human), UniProt Q8NEB9) (assay: Human VPS34 enzyme assay (Adapta TR-FRET ADP detection)). Details: not given.
Assay type: biochemical
Parameters: Percent Inhibition: dose or concentration left out as unconfirmed

Sequence of human VPS34 (Q8NEB9 whole entry): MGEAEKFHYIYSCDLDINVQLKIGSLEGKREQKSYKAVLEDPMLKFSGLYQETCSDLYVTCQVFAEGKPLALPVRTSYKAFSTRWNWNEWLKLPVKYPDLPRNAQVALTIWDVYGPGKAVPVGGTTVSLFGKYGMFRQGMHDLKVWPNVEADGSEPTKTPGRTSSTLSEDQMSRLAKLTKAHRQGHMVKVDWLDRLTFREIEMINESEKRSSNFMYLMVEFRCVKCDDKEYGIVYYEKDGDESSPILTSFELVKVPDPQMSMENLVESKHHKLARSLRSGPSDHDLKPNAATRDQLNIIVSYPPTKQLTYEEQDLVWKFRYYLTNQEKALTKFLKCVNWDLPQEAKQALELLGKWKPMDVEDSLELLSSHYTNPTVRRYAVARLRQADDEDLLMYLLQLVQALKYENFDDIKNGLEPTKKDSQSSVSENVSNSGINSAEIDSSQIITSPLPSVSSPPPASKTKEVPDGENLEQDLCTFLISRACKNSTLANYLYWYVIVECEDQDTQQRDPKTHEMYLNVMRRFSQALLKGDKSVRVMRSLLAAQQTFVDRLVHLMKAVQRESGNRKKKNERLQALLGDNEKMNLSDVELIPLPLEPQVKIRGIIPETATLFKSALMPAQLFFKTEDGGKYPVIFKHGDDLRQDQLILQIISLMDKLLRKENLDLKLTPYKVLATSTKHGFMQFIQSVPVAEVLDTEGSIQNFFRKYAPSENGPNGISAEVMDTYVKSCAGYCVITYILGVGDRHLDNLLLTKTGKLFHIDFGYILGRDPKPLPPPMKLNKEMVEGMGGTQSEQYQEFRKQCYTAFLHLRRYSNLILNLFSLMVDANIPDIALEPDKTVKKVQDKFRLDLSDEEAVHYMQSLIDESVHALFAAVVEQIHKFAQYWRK

SMILES | Percent Inhibition
CC(=O)Nc1cc(-c2cnc(Cl)c(NS(=O)(=O)c3cn(C)nc3C(F)(F)F)c2C)ccn1 [Compound I-493, N-[6-chloro-4-methyl-5-({[1-methyl-3-(trifluoromethyl)-1H-pyrazol-4-yl]sulfonyl}amino)-3,4′-bipyridin-2′-yl]acetamide] | 99%

Same assay, conditions: IC50 range class

SMILES | IC50
CCOC(=O)Nc1cc(-c2cnc(C)c(NS(=O)(=O)c3ccc(Cl)cc3F)c2)ccn1 [Compound I-456, ethyl (5-{[(4-chloro-2-fluorophenyl)sulfonyl]amino}-6-methyl-3,4′-bipyridin-2′-yl}carbamate] | < 10 nM
Cc1nccc(Nc2cc(-c3cnc(Cl)c(C(=O)N4CCC4)c3C)ccn2)n1 [Compound I-457, axetidin-1-yl{6-chloro-4-methyl-2′-[(2-methylpyrimidin-4-yl)amino]-3,4′-bipyridine-5-yl)methanone] | 10 to 50 nM
CC(=O)Nc1cc(-c2cncc(N(C)S(=O)(=O)N(C)C)c2)ccn1 [Compound I-458, N-{5-[(dimethylsulfamoyl)(methyl)amino]-3,4′-bipyridin-2′-yl}acetamide] | 10 to 50 nM
CC(=O)Nc1cc(-c2cncc(S(=O)(=O)Nc3ccccc3)c2)ccn1 [Compound I-459, N-[5-(phenylsulfamoyl)-3,4′-bipyridin-2′-yl]acetamide] | 10 to 50 nM
CC(=O)Nc1cc(-c2cnc(C)c(N3CCCNC3=O)c2)ccn1 [Compound I-460, N-[6-methyl-5-(2-oxotetrahydropyrimidin-1(2H)-yl)-3,4′-bipyridin-2′-yl]acetamide] | > 100 nM
CC(=O)Nc1cc(-c2cncc(S(=O)(=O)NC(C)(C)C)c2C)ccn1 [Compound I-462, N-(5-(N-(tert-butyl)sulfamoyl)-4-methyl-[3,4′-bipyridin]-2′-yl)acetamide] | > 100 nM
CC(=O)Nc1cc(-c2cnc(C)c(NS(=O)(=O)c3c(Cl)cccc3Cl)c2)ccn1 [Compound I-463, N-[5-{[(2,6-dichlorophenyl)sulfonyl]amino}-6-methyl-3,4′-bipyridin-2′-yl)acetamide] | < 10 nM
CC(=O)Nc1cc(-c2cnc(C)c(NS(=O)(=O)c3cc(Cl)sc3Cl)c2)ccn1 [Compound I-465, N-[5-{[(2,5-dichloro-3-thienyl)sulfonyl]amino}-6-methyl-3,4′-bipyridin-2′-yl)acetamide] | 10 to 50 nM
Cc1c(-c2ccnc(Nc3ccnc(C4CC4)n3)c2)cnc(Cl)c1C(=O)N1CC(C)(C)C1 [Compound I-466, (6-chloro-2′-[(2-cyclopropylpyrimidin-4-yl)amino]-4-methyl-3,4′-bipyridin-5-yl](3,3-dimethylazetidin-1-yl)methanone] | 10 to 50 nM
CC(=O)Nc1cc(-c2cnc(Cl)c(N3CCCN(C)S3(=O)=O)c2)ccn1 [Compound I-467, N-[6-chloro-5-(6-methyl-1,1-dioxido-1,2,6-thiadiazinan-2-yl)-3,4′-bipyridin-2′-yl)acetamide] | < 10 nM
CC(=O)Nc1cc(-c2cncc(S(=O)(=O)NC34CC5CC(CC(C5)C3)C4)c2)ccn1 [Compound I-468, N-[5-(adamantan-1-ylsulfamoyl)-3,4′-bipyridin-2′-yl]acetamide] | 10 to 50 nM
CCc1c(-c2ccnc(NC(C)=O)c2)cnc(Cl)c1NS(=O)(=O)c1ccc(F)cc1F [Compound I-469, N-(6-chloro-5-{[(2,4-difluorophenyl)sulfonyl]amino}-4-ethyl-3,4′-bipyridin-2′-yl)acetamide] | 10 to 50 nM
COc1ncc(-c2ccnc(NC(C)=O)c2)cc1S(=O)(=O)NC12CC(C1)C2 [Compound I-470] | 10 to 50 nM
Cc1nccc(Nc2cc(-c3cnc(C)c(OC4CCCC4)c3)ccn2)n1 [Compound I-471, 5-(cyclopentyloxy)-6-methyl-N-(2-methylpyrimidin-4-yl)-3,4′-bipyridin-2′-amine] | 10 to 50 nM
CC(=O)Nc1cc(-c2cncc(Nc3ncco3)c2)ccn1 [Compound I-472, N-[5-(1,3-oxazol-2-ylamino)-3,4′-bipyridin-2′-yl]acetamide] | > 100 nM
CC(=O)Nc1cc(-c2cnc(Cl)c(N3CCCNS3(=O)=O)c2C)ccn1 [Compound I-473, N-[6-chloro-5-(1,1-dioxido-1,2,6-thiadiazinan-2-yl)-4-methyl-3,4′-bipyridin-2′-yl]acetamide] | 10 to 50 nM
CC(=O)Nc1cc(-c2cncc(S(=O)(=O)N3CCC3)c2)ccn1 [Compound I-474, N-[5-(azetidin-1-ylsulfonyl)-3,4′-bipyridin-2′-yl]acetamide] | 10 to 50 nM
Cc1nccc(Nc2cc(-c3cnc(C)c(Oc4ccccc4)c3)ccn2)n1 [Compound I-475, 6-methyl-N-(2-methylpyrimidin-4-yl)-5-phenoxy-3,4′-bipyridin-2′-amine] | 10 to 50 nM
CC(=O)Nc1cc(-c2cc(NS(=O)(=O)N(C)C)c3ccnn3c2)ccn1 [Compound I-476, N-(4-{4-[(dimethylsulfamoyl)amino]pyrazolo[1.5-a]pyridin-6-yl}pyridin-2-yl)acetamide] | 10 to 50 nM

SMILES | IC50
CC(=O)Nc1cc(-c2cnc(Cl)c(NS(=O)(=O)N3CC4CCC3C4)c2C)ccn1 (centres unmarked) [Compound I-477, N-{5-[(2-azabicyclo[2.2.1]hept-2-ylsulfonyl)amino]-6-chloro-4-methyl-3,4′-bipyridin-2′-yl}acetamide] | 10 to 50 nM
CC(=O)Nc1cc(-c2cnc(C)c(OS(=O)(=O)c3ccc(F)cc3F)c2)ccn1 [Compound I-478, 2′-acetamido-6-methyl-3,4′-bipyridin-5-yl 2,4-difluorobenzenesulfonate] | 10 to 50 nM
CCOc1cc(-c2ccnc(Nc3ccnc(C)n3)c2)cnc1C [Compound I-479, 5-ethoxy-6-methyl-N-(2-methylpyrimidin-4-yl)-3,4′-bipyridin-2′-amine] | 10 to 50 nM
Cc1nccc(Nc2cc(-c3cc(N)c4ccnn4c3)ccn2)n1 [Compound I-480, 6-{2-[(2-methylpyrimidin-4-yl)amino]pyridin-4-yl}pyrazolo[1.5-a]pyridin-4-amine] | 50 to 100 nM
CC(=O)Nc1cc(-c2cncc(S(=O)(=O)N3CCN(C)CC3)c2)ccn1 [Compound I-481] | 10 to 50 nM
Cc1nccc(Nc2cc(-c3cnc(C)c(NC(=O)N4CC(F)(F)C4)c3)ccn2)n1 [Compound I-482, 3,3-difluoro-N-{6-methyl-2′-[(2-methylpyrimidin-4-yl)amino]-3,4′-bipyridin-5-yl}azetidine-1-carboxamide] | 50 to 100 nM
CC(=O)Nc1cc(-c2cnc(C)c(NS(=O)(=O)N3CCC(C)(C)CC3)c2)ccn1 [Compound I-483, N-(5-{[(4,4-dimethylpiperidin-1-yl)sulfonyl]-amino}-6-methyl-3,4′-bipyridin-2′-yl)acetamide] | 10 to 50 nM
CC(=O)Nc1cc(-c2cnc3c(c2)S(=O)(=O)NCCO3)ccn1 [Compound I-484, N-(4-(1,1-dioxido-3,4-dihydro-2H-pyrido[2,3-b][1,4,5]oxathiazepin-8-yl)pyridin-2-yl)acetamide] | 50 to 100 nM
CC(=O)Nc1cc(-c2cnc(C)c(C(=O)N(C)c3ccc(F)cc3F)c2)ccn1 [Compound I-485, 2′-acetamido-N-(2,4-difluorophenyl)-N,6-dimethyl-3,4′-bipyridine-5-carboxamide] | 10 to 50 nM
Cc1nccc(Nc2cc(-c3cc(NS(=O)(=O)c4ccc(F)cc4F)c4ccnn4c3)ccn2)n1 [Compound I-486, 2,4-difluoro-N-(6-{2-[(2-methylpyrimidin-4-yl)amino]pyridin-4-yl}pyrazolo[1,5-a]pyridin-4-yl)benzenesulfonamide] | < 10 nM
CC(=O)Nc1cc(-c2cnc(N(C)C)c(S(=O)(=O)NC(C)(C)C)c2C)ccn1 [Compound I-487, N-[5-(tert-butylsulfamoyl)-6-(dimethylamino)-4-methyl-3,4′-bipyridin-2′-yl]acetamide] | > 100 nM
CC(=O)Nc1cc(-c2cnc(Cl)c(NS(=O)(=O)N3CCCC3)c2C)ccn1 [Compound I-488, N-{6-chloro-4-methyl-5-[(pyrrolidin-1-ylsulfonyl)amino]-3,4′-bipyridin-2′-yl}acetamide] | 10 to 50 nM
CC(=O)Nc1cc(-c2cnc(N)c(N3CCCNS3(=O)=O)c2)ccn1 [Compound I-490, N-[6-amino-5-(1,1-dioxido-1,2,6-thiadiazinan-2-yl)-3,4′-bipyridin-2′-yl]acetamide] | < 10 nM
CC(=O)Nc1cc(-c2cnc(N(C)C)c(S(=O)(=O)Nc3ccc(F)cc3F)c2)ccn1 [Compound I-491, N-{5-[(2,4-difluorophenyl)sulfamoyl]-6-(dimethylamino)-3,4′-bipyridin-2′-yl}acetamide] | 10 to 50 nM
CC(=O)Nc1cc(-c2cnc(C)c(OCC3CC3)c2)ccn1 [Compound I-492, N-[5-(cyclopropylmethoxy)-6-methyl-3,4′-bipyridin-2′-yl]acetamide] | > 100 nM
CC(=O)Nc1cc(-c2cnc(Cl)c(NS(=O)(=O)c3cn(C)nc3C(F)(F)F)c2C)ccn1 [Compound I-493, N-[6-chloro-4-methyl-5-({[1-methyl-3-(trifluoromethyl)-1H-pyrazol-4-yl]sulfonyl}amino)-3,4′-bipyridin-2′-yl]acetamide] | 10 to 50 nM
CC(=O)Nc1cc(-c2cnc(C)c(NS(=O)(=O)N(C)c3ccccc3)c2)ccn1 [Compound I-494, N-(6-methyl-5-{[methyl(phenyl)sulfamoyl]amino}-3,4′-bipyridin-2′-yl)acetamide] | 50 to 100 nM
Cc1nccc(Nc2cc(-c3cnc(C)c(C(=O)N4CC(C)(C)C4)c3)ccn2)n1 [Compound I-495, (3,3-dimethylazetidin-1-yl){6-methyl-2′-[(2-methylpyrimidin-4-yl)amino]-3,4′-bipyridin-5-yl}methanone] | 10 to 50 nM
